Measured values from patent US8617872B2, “Compositions for culturing spirochetes” (priority 2000, dated 2013).

These compounds were tested on E. coli (assay: Antibiotic susceptibility test (MICROSCAN or disc diffusion), control organism E. coli). Details: total isolates 1.
Type: cell-based

SMILES	Antibiotic Susceptibility Test Results, E. coli [%]
CO/N=C(\C(=O)N[C@@H]1C(=O)N2C(C(=O)O)=C(COC(C)=O)CS[C@H]12)c1csc(N)n1 [Cefotaxime]	100
C[C@@H](O)[C@H]1C(=O)N2C(C(=O)O)=C(SCCN=CN)C[C@H]12 [Imipenem]	100
C[C@H]1COc2c(N3CCN(C)CC3)c(F)cc3c(=O)c(C(=O)O)cn1c23 [Levofloxacin]	100
NCC[C@H](O)C(=O)N[C@@H]1C[C@H](N)[C@@H](O[C@H]2O[C@H](CN)[C@@H](O)[C@H](O)[C@H]2O)[C@H](O)[C@H]1O[C@H]1O[C@H](CO)[C@@H](O)[C@H](N)[C@H]1O [Amikacin]	100

What follows are compounds tested on Tatumella (assay: Antibiotic susceptibility test (MICROSCAN or disc diffusion), control organism Tatumella). Details: total isolates 2.
Type: cell-based
Description: (§1) This example describes the preparation of a pellet used for antimicrobial susceptibility testing of a culture sample. The procedure begins with a culture (e.g., prepared in the manner described in Example 2), where serum from a patient is inoculated in GSI-1 media and allowed to grow. In order to form pellet, an aliquot of this culture sample is placed in a microcentrifuge tube along with 10% SDS solution, and centrifuged at 14,000 g to disrupt the spirochetes and maximize the number of available eptiopic sites. The disrupted spirochetes were then cultured in an alternative growth medium made up of one part GSI-1 medium, one part 6.5% lactalbumin hydrolysate, one part 2% brain heart infusion, one part 10% pluronic fluid, and one part of the isolated (disrupted) spirochetes. This inoculated alternative growth medium was then allowed to incubate in the closed micro centrifuge tube until a distinctive pellet was observed (typically 7-14 days).
(§2) Following the observation of pellet formation, the tube was vortexed and incubated at 35° C. until a MacFarlane standard of between 8 to 12% turbidity was achieved. MICROSCAN antibiotic susceptibility microtiter plates were then inoculated with (e.g., 110 μl of) inoculum and allowed to incubate at 35° C. for 16-20 hours. The microtiter plates were then scanned for growth and respective sensitivity reaction (both the control well and the growth well). Table 2 below lists the various antimicrobials tested with this sample and whether growth of the organism was inhibited (susceptible) or whether the growth of the organism was not inhibited (resistant).
(§3) This Example describes the results for susceptibility tests that were performed on a large number of patient samples positive for either Borrelia or Leptospira. […] The results presented in Table 3 reveal the varied response of different types of spirochetes to different antibiotics.

SMILES	Antibiotic Susceptibility Test Results, Tatumella [%]
CO/N=C(\C(=O)N[C@@H]1C(=O)N2C(C(=O)O)=C(COC(C)=O)CS[C@H]12)c1csc(N)n1 [Cefotaxime]	0
C[C@@H](O)[C@H]1C(=O)N2C(C(=O)O)=C(SCCN=CN)C[C@H]12 [Imipenem]	100
C[C@H]1COc2c(N3CCN(C)CC3)c(F)cc3c(=O)c(C(=O)O)cn1c23 [Levofloxacin]	100
NCC[C@H](O)C(=O)N[C@@H]1C[C@H](N)[C@@H](O[C@H]2O[C@H](CN)[C@@H](O)[C@H](O)[C@H]2O)[C@H](O)[C@H]1O[C@H]1O[C@H](CO)[C@@H](O)[C@H](N)[C@H]1O [Amikacin]	100

The compounds below were run on Y. entero gp. (assay: Antibiotic susceptibility test (MICROSCAN or disc diffusion), control organism Y. entero gp.). Details: total isolates 1.
Type: cell-based

SMILES	Antibiotic Susceptibility Test Results, Y. entero gp. [%]
CO/N=C(\C(=O)N[C@@H]1C(=O)N2C(C(=O)O)=C(COC(C)=O)CS[C@H]12)c1csc(N)n1 [Cefotaxime]	100
C[C@@H](O)[C@H]1C(=O)N2C(C(=O)O)=C(SCCN=CN)C[C@H]12 [Imipenem]	100
C[C@H]1COc2c(N3CCN(C)CC3)c(F)cc3c(=O)c(C(=O)O)cn1c23 [Levofloxacin]	100
NCC[C@H](O)C(=O)N[C@@H]1C[C@H](N)[C@@H](O[C@H]2O[C@H](CN)[C@@H](O)[C@H](O)[C@H]2O)[C@H](O)[C@H]1O[C@H]1O[C@H](CO)[C@@H](O)[C@H](N)[C@H]1O [Amikacin]	100

What follows are compounds tested on Borrelia (assay: Antibiotic susceptibility test (MICROSCAN or disc diffusion) of patient samples positive for Borrelia). Details: total isolates 519.
Type: cell-based
Description: as §1, §2, §3

SMILES	Antibiotic Susceptibility Test Results, Borrelia [%]
CO/N=C(\C(=O)N[C@@H]1C(=O)N2C(C(=O)O)=C(COC(C)=O)CS[C@H]12)c1csc(N)n1 [Cefotaxime]	60
C[C@@H](O)[C@H]1C(=O)N2C(C(=O)O)=C(SCCN=CN)C[C@H]12 [Imipenem]	84
C[C@H]1COc2c(N3CCN(C)CC3)c(F)cc3c(=O)c(C(=O)O)cn1c23 [Levofloxacin]	86
NCC[C@H](O)C(=O)N[C@@H]1C[C@H](N)[C@@H](O[C@H]2O[C@H](CN)[C@@H](O)[C@H](O)[C@H]2O)[C@H](O)[C@H]1O[C@H]1O[C@H](CO)[C@@H](O)[C@H](N)[C@H]1O [Amikacin]	84

The compounds below were run on Leptospira (assay: Antibiotic susceptibility test (MICROSCAN or disc diffusion) of patient samples positive for Leptospira). Details: total isolates 276.
Type: cell-based
Description: as §1, §2, §3

SMILES	Antibiotic Susceptibility Test Results, Leptospira [%]
CO/N=C(\C(=O)N[C@@H]1C(=O)N2C(C(=O)O)=C(COC(C)=O)CS[C@H]12)c1csc(N)n1 [Cefotaxime]	64
C[C@@H](O)[C@H]1C(=O)N2C(C(=O)O)=C(SCCN=CN)C[C@H]12 [Imipenem]	77
C[C@H]1COc2c(N3CCN(C)CC3)c(F)cc3c(=O)c(C(=O)O)cn1c23 [Levofloxacin]	83
NCC[C@H](O)C(=O)N[C@@H]1C[C@H](N)[C@@H](O[C@H]2O[C@H](CN)[C@@H](O)[C@H](O)[C@H]2O)[C@H](O)[C@H]1O[C@H]1O[C@H](CO)[C@@H](O)[C@H](N)[C@H]1O [Amikacin]	85

Each compound was assayed on A. lwoffii (assay: Antibiotic susceptibility test (MICROSCAN or disc diffusion), control organism A. lwoffii). Details: total isolates 1.
Type: cell-based

SMILES	Antibiotic Susceptibility Test Results, A. lwoffii [%]
CO/N=C(\C(=O)N[C@@H]1C(=O)N2C(C(=O)O)=C(COC(C)=O)CS[C@H]12)c1csc(N)n1 [Cefotaxime]	100
C[C@@H](O)[C@H]1C(=O)N2C(C(=O)O)=C(SCCN=CN)C[C@H]12 [Imipenem]	100
C[C@H]1COc2c(N3CCN(C)CC3)c(F)cc3c(=O)c(C(=O)O)cn1c23 [Levofloxacin]	100
NCC[C@H](O)C(=O)N[C@@H]1C[C@H](N)[C@@H](O[C@H]2O[C@H](CN)[C@@H](O)[C@H](O)[C@H]2O)[C@H](O)[C@H]1O[C@H]1O[C@H](CO)[C@@H](O)[C@H](N)[C@H]1O [Amikacin]	100

The compounds below were run on Pseudomonas (assay: Antibiotic susceptibility test (MICROSCAN or disc diffusion), control organism Pseudomonas). Details: total isolates 1.
Type: cell-based

SMILES	Antibiotic Susceptibility Test Results, Pseudomonas [%]
CO/N=C(\C(=O)N[C@@H]1C(=O)N2C(C(=O)O)=C(COC(C)=O)CS[C@H]12)c1csc(N)n1 [Cefotaxime]	100
C[C@@H](O)[C@H]1C(=O)N2C(C(=O)O)=C(SCCN=CN)C[C@H]12 [Imipenem]	100
C[C@H]1COc2c(N3CCN(C)CC3)c(F)cc3c(=O)c(C(=O)O)cn1c23 [Levofloxacin]	100
NCC[C@H](O)C(=O)N[C@@H]1C[C@H](N)[C@@H](O[C@H]2O[C@H](CN)[C@@H](O)[C@H](O)[C@H]2O)[C@H](O)[C@H]1O[C@H]1O[C@H](CO)[C@@H](O)[C@H](N)[C@H]1O [Amikacin]	100

These compounds were tested on Leptospira (assay: Susceptibility testing of Leptospira isolated from a patient with symptoms of multiple sclerosis). Details: Leptospira culture from serum of multiple sclerosis patient.
Type: cell-based
Experimental: This example describes the preparation of a pellet used for antimicrobial susceptibility testing of a culture sample. […] In order to form pellet, an aliquot of this culture sample is placed in a microcentrifuge tube along with 10% SDS solution, and centrifuged at 14,000 g to disrupt the spirochetes and maximize the number of available eptiopic sites. […] This inoculated alternative growth medium was then allowed to incubate in the closed micro centrifuge tube until a distinctive pellet was observed (typically 7-14 days).
MICROSCAN antibiotic susceptibility microtiter plates were then inoculated with (e.g., 110 μl of) inoculum and allowed to incubate at 35° C. for 16-20 hours. The microtiter plates were then scanned for growth and respective sensitivity reaction (both the control well and the growth well).

SMILES	Antibiotic Susceptibility Results, SERUM
CO/N=C(\C(=O)N[C@@H]1C(=O)N2C(C(=O)O)=C(COC(C)=O)CS[C@H]12)c1csc(N)n1 [Cefotaxime]	Resistant
C[C@@H](O)[C@H]1C(=O)N2C(C(=O)O)=C(SCCN=CN)C[C@H]12 [Imipenem]	Resistant
C[C@H]1COc2c(N3CCN(C)CC3)c(F)cc3c(=O)c(C(=O)O)cn1c23 [Levofloxacin]	Susceptible
NCC[C@H](O)C(=O)N[C@@H]1C[C@H](N)[C@@H](O[C@H]2O[C@H](CN)[C@@H](O)[C@H](O)[C@H]2O)[C@H](O)[C@H]1O[C@H]1O[C@H](CO)[C@@H](O)[C@H](N)[C@H]1O [Amikacin]	Resistant

Same assay, conditions: Leptospira culture from urine of multiple sclerosis patient

SMILES	Antibiotic Susceptibility Results, URINE
CO/N=C(\C(=O)N[C@@H]1C(=O)N2C(C(=O)O)=C(COC(C)=O)CS[C@H]12)c1csc(N)n1 [Cefotaxime]	Resistant
C[C@@H](O)[C@H]1C(=O)N2C(C(=O)O)=C(SCCN=CN)C[C@H]12 [Imipenem]	Resistant
C[C@H]1COc2c(N3CCN(C)CC3)c(F)cc3c(=O)c(C(=O)O)cn1c23 [Levofloxacin]	Susceptible
NCC[C@H](O)C(=O)N[C@@H]1C[C@H](N)[C@@H](O[C@H]2O[C@H](CN)[C@@H](O)[C@H](O)[C@H]2O)[C@H](O)[C@H]1O[C@H]1O[C@H](CO)[C@@H](O)[C@H](N)[C@H]1O [Amikacin]	Resistant

Each compound was assayed on Leptospira (assay: Susceptibility testing of Leptospira isolated from a patient with symptoms of rheumatoid arthritis). Details: Leptospira culture from serum of rheumatoid arthritis patient.
Type: cell-based
Description: as §1
Following the observation of pellet formation, the tube was vortexed and incubated at 35° C. until a MacFarlane standard of between 8 to 12% turbidity was achieved. MICROSCAN antibiotic susceptibility microtiter plates were then inoculated with (e.g., 110 μl of) inoculum and allowed to incubate at 35° C. for 16-20 hours. The microtiter plates were then scanned for growth and respective sensitivity reaction (both the control well and the growth well).
This Example describes the diagnosis and treatment of a human patient with symptoms of rheumatoid arthritis. In particular, serum and urine samples from this patient were initially cultured on GSI-1 (e.g., as described in Example 2), and screened for the presence of spirochetes (e.g., as described in Example 3). […] These cultures were then used to produce pellets for antimicrobial susceptibility testing (e.g., as described in Example 6). The antimicrobial susceptibility tests were then carried out on each sample (e.g., as described in Example 7) with the antimicrobials listed below in Table 5.

SMILES	Antibiotic Susceptibility Results, SERUM
CO/N=C(\C(=O)N[C@@H]1C(=O)N2C(C(=O)O)=C(COC(C)=O)CS[C@H]12)c1csc(N)n1 [Cefotaxime]	Resistant
C[C@H]1COc2c(N3CCN(C)CC3)c(F)cc3c(=O)c(C(=O)O)cn1c23 [Levofloxacin]	Susceptible
NCC[C@H](O)C(=O)N[C@@H]1C[C@H](N)[C@@H](O[C@H]2O[C@H](CN)[C@@H](O)[C@H](O)[C@H]2O)[C@H](O)[C@H]1O[C@H]1O[C@H](CO)[C@@H](O)[C@H](N)[C@H]1O [Amikacin]	Resistant

Same assay, conditions: Leptospira culture from urine of rheumatoid arthritis patient

SMILES	Antibiotic Susceptibility Results, URINE
CO/N=C(\C(=O)N[C@@H]1C(=O)N2C(C(=O)O)=C(COC(C)=O)CS[C@H]12)c1csc(N)n1 [Cefotaxime]	Resistant
C[C@H]1COc2c(N3CCN(C)CC3)c(F)cc3c(=O)c(C(=O)O)cn1c23 [Levofloxacin]	Susceptible
NCC[C@H](O)C(=O)N[C@@H]1C[C@H](N)[C@@H](O[C@H]2O[C@H](CN)[C@@H](O)[C@H](O)[C@H]2O)[C@H](O)[C@H]1O[C@H]1O[C@H](CO)[C@@H](O)[C@H](N)[C@H]1O [Amikacin]	Resistant
